Here are results for 15 compounds from patent US20230059487A1, “PHOTOSENSITIVE MATERIAL, TRANSFER FILM, MANUFACTURING METHOD OF CIRCUIT WIRING, MANUFACTURING METHOD OF TOUCH PANEL, AND PATTERN FORMING METHOD” (FUJIFILM Corporation, priority 2020, published 2023).

Data set [1] can be described thus: Measurement of molar absorption coefficients ε365, ε313 and ε365/ε313 in acetonitrile. The class given is physicochemical. From the text:
(Measurement and Evaluation of ε365 and ε365/ε313)
The ε365 and ε313 of the compound β are molar absorption coefficients measured by dissolving the compound β in acetonitrile. In a case where the compound β was insoluble in acetonitrile, a solvent for dissolving the compound β may be appropriately changed.

Data set [2] is described as follows: Measurement of pKa of compound β in ground state (acid titration). Type of data set: physicochemical. From the text: (Measurement of pKa of Compound β in Ground State)
Where [3] appears, read: molar absorption coefficient at 365 nm in acetonitrile.

Like-named read-outs stand apart in the source and are kept apart here. Where only a bound is given, the exact number is not on record here.

`Cc1cc(C)c2c(C)cc(C)nc2c1` [2,4,5,7-Tetramethylquinoline]: the “ε365 of Compound β” value in data set [1] (setting [3]) is listed as <10 (cm mol/L)^−1.

On to `Cc1cc(C)c2ccccc2n1` [2,4-Dimethylquinolme], for which the “ε365 of Compound β” value in data set [1] (setting [3]) is <10 (cm mol/L)^−1.

For the compound `CCCCc1ncc(C)c2ccccc12` [Example 1-n-Butyl-4-methylisoquinoline, 1-n-Butyl-4-methylisoquinoline], the “ε365 of Compound β” value in data set [1] (setting [3]) was <10 (cm mol/L)^−1.

On to `CCCCc1nccc2ccccc12` [Example 1-n-Butylisoquinoline, 1-n-Butylisoquinoline], for which the “ε365 of Compound β” value in data set [1] (setting [3]) is recorded as <10 (cm mol/L)^−1.

In the case of `Clc1ccccn1` [Example 2-Chloropyridine, 2-Chloropyridine], the “ε365 of Compound β” value in data set [1] (setting [3]) is <10 (cm mol/L)^−1.

With `COc1cc(C)nc2ccccc12` [Example 2-Methyl-4-methoxyquinoline, 2-Methyl-4-methoxyquinoline], the “ε365 of Compound β” value in data set [1] (setting [3]) is recorded as <10 (cm mol/L)^−1.

As to `Nc1ccncc1` [Example 4-Aminopyridine, 4-Aminopyridine], the “ε365 of Compound β” value in data set [1] (setting [3]) is <100 (cm mol/L)^−1.

With `Cc1c2ccccc2nc2ccccc12` [Example 9-Methylacridine, 9-Methylacridine], the “ε365 of Compound β” value in data set [1] (setting [3]) is 6300 (cm mol/L)^−1.

As to `c1ccc(-c2c3ccccc3nc3ccccc23)cc1` [Example 9-Phenylacridine, 9-Phenylacridine], the “ε365 of Compound β” value in data set [1] is greater than 10000; in data set [1] (molar absorption coefficient at 365 nm) it was greater than 10000; in data set [1] (setting [3]), >10000 (cm mol/L)^−1.

Consider `c1ccc2cnccc2c1` [Example B1, isoquinoline], for which the “pKa of Compound β in ground state” value is reported as 4.69 in data set [2]; 4.69 in data set [2] (compound β alone); 4.69 in data set [2] (compound β alone, ground state); 4.69 in data set [2] (compound β in ground state); 4.69 in data set [2] (compound β, ground state); 4.69 in data set [2] (ground state). For the same compound, the “ε365 of Compound β” value in data set [1] (setting [3]) is <10 (cm mol/L)^−1.

`c1ccc2ncccc2c1` [Example B2, quinoline]: the “pKa of Compound β in ground state” value in data set [2] was found to be 4.15; in data set [2] (compound β alone), 4.15; in data set [2] (compound β alone, ground state), 4.15; in data set [2] (compound β in ground state) it was 4.15; in data set [2] (compound β, ground state), 4.15; in data set [2] (ground state), 4.15. Besides, the “ε365 of Compound β” value in data set [1] (setting [3]) is reported as <10 (cm mol/L)^−1.

Regarding `c1ccc2nc3ccccc3cc2c1` [Example B3, acridine], the “pKa of Compound β in ground state” value in data set [2] came out at 4.67; in data set [2] (compound β alone), 4.67; in data set [2] (compound β alone, ground state), 4.67; in data set [2] (compound β in ground state), 4.67; in data set [2] (compound β, ground state), 4.67; in data set [2] (ground state), 4.67. For the same compound, in data set [1] (setting [3]), the “ε365 of Compound β” value was 4900 (cm mol/L)^−1.

On to `Cc1nccc2ccccc12` [Example B6, 1-Me-isoquinoline], for which the “ε365 of Compound β” value in data set [1] (setting [3]) is <10 (cm mol/L)^−1.

Regarding `c1ccncc1` [Example B11, pyridine], the “ε365 of Compound β” value in data set [1] (setting [3]) is given as <10 (cm mol/L)^−1.

Take `Cc1cc(C)c2ccccc2n1` [Example B12, 2,4-dimethylquinoline]: the “ε365 of Compound β” value in data set [1] (molar absorption coefficient at 365 nm in acetonitrile, listed as 2,4-Dimethylquinoline) is recorded as <10 (cm mol/L)^−1.
